According to patent publication US12448388B2, “PRMT5 inhibitors and uses thereof” (Gilead Sciences, Inc., priority 2023, dated 2025):
pEC50: −log10 of the molar value. Where two headings read alike, the source gives them in different places.

Legend:
[1] = tested on: HCT116 MTAP-deleted cell lines; assay: Cell viability assay (CellTiter-Glo, 7 days), HCT116 MTAP-deleted; format: cell-based; details: Homo sapiens, HCT-116
How it was run: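 CC50 values come from 7-day CellTiter-Glo viability measurements on cells exposed to a dose range of PRMT5 inhibitors dispensed from DMSO stocks.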

[2] = tested on: Symmetric Di-methyl Arginine (SDMA) signal (PRMT5 inhibition) in HCT116 MTAP-deleted cells; assay: Symmetric di-methyl arginine image-based high content screen assay (SDMA assay), HCT116 MTAP-deleted; format: cell-based; details: for EC50 selectivity: HCT116 WT versus HCT116 MTAP-deleted; for pEC50: Homo sapiens, HCT-116, HCT116 MTAP-deleted, class symbols
How it was run: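 HCT116 WT and MTAP-deleted cells (800/well, RPMI 1640 + 10% FBS) treated with compound 3 days at 37 °C; formalin-fixed, stained with anti-SDMA antibody/Alexa 488 plus DAPI. Mean SDMA intensity per DAPI-defined cell imaged; EC50 from 4-parameter logistic fit.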

[3] = cell viability, HCT116 MTAP-deleted, class symbols, read-out: CC50

Row | SMILES | CC50 [1, 3] [nM] | EC50 selectivity [2] | pEC50 [2] | CC50 [1] [nM]
1 | CC(C)N(Cc1ccc(C(F)(F)F)cn1)C(=O)c1cc2c(cc1F)nc(N)c1cncn12 [Ff-7, 4-amino-7-fluoro-N-isopropyl-N-((5-(trifluoromethyl)pyridin-2-yl)methyl)imidazo[1,5-a]quinoxaline-8-carboxamide] | < 100 | 33 | ≥ 9.00 | 
2 | CCN(C(=O)c1ccc2nc(N)c3cncn3c2c1)[C@@H]1COc2cc(C(F)(F)F)ccc21 [Ff-8, (S)-4-amino-N-ethyl-N-(6-(trifluoromethyl)-2,3-dihydrobenzofuran-3-yl)imidazo[1,5-a]quinoxaline-8-carboxamide] | < 100 | 299 | ≥ 9.00 | 
3 | CCN(C(=O)c1cc2c(cc1F)nc(N)c1cncn12)[C@@H]1COc2cc(C(F)(F)F)ccc21 [Ff-9, (S)-4-amino-N-ethyl-7-fluoro-N-(6-(trifluoromethyl)-2,3-dihydrobenzofuran-3-yl)imidazo[1,5-a]quinoxaline-8-carboxamide] | < 100 | 106 | ≥ 9.00 | 
4 | CN(C(=O)c1cc2c(cc1Cl)nc(N)c1cncn12)[C@@H]1COc2cc(C(F)(F)F)ccc21 [Ff-10, (S)-4-amino-7-chloro-N-methyl-N-(6-(trifluoromethyl)-2,3-dihydrobenzofuran-3-yl)imidazo[1,5-a]quinoxaline-8-carboxamide] |  | 88 | ≥ 9.00 | < 100
5 | CN(C(=O)c1ccc2nc(N)c3cncn3c2c1)[C@@H]1COc2cc(C(F)(F)F)ccc21 [Ff-11, (S)-4-amino-N-methyl-N-(6-(trifluoromethyl)-2,3-dihydrobenzofuran-3-yl)imidazo[1,5-a]quinoxaline-8-carboxamide] | < 100 | 352 | ≥ 9.00 | 
6 | CN(C(=O)c1cc2c(cc1F)nc(N)c1cncn12)[C@@H]1COc2cc(C(F)(F)F)ccc21 [Ff-12, (S)-4-amino-7-fluoro-N-methyl-N-(6-(trifluoromethyl)-2,3-dihydrobenzofuran-3-yl)imidazo[1,5-a]quinoxaline-8-carboxamide] | < 100 | 196 | ≥ 9.00 | 
7 | CN(C(=O)c1cc2c(cc1F)nc(N)c1cncn12)C1CCc2nc(C(F)(F)F)ccc21 (stereo not drawn) [Ff-13, 4-amino-7-fluoro-N-methyl-N-(2-(trifluoromethyl)-6,7-dihydro-5H-cyclopenta[b]pyridin-5-yl)imidazo[1,5-a]quinoxaline-8-carboxamide] | < 100 | 176 | ≥ 9.00 | 
8 | CN(C(=O)c1cc2c(cc1F)nc(N)c1cncn12)[C@@H]1COCc2cc(Br)ccc21 [Ff-14, (S)-4-amino-N-(7-bromoisochroman-4-yl)-7-fluoro-N-methylimidazo[1,5-a]quinoxaline-8-carboxamide] | < 100 | 241 | ≥ 9.00 | 
9 | Cc1ncc2c(N)nc3ccc(C(=O)N(C)[C@@H]4COc5cc(C#CC6CCCO6)ccc54)cc3n12 (stereo partly drawn) [Ff-17, 4-amino-N,1-dimethyl-N-((3S)-6-((tetrahydrofuran-2-yl)ethynyl)-2,3-dihydrobenzofuran-3-yl)imidazo[1,5-a]quinoxaline-8-carboxamide] | 100 to 1000 | 253 | 8.30 to 9.00 | 
10 | COC(C)(C)C#Cc1ccc2c(c1)OC[C@H]2N(C)C(=O)c1ccc2nc(N)c3cnc(C)n3c2c1 [Ff-18, (S)-4-amino-N-(6-(3-methoxy-3-methylbut-1-yn-1-yl)-2,3-dihydrobenzofuran-3-yl)-N,1-dimethylimidazo[1,5-a]quinoxaline-8-carboxamide] | 100 to 1000 | 447 | < 8.30 | 
11 | Cc1ncc2c(N)nc3ccc(C(=O)N(C)[C@@H]4COc5cc(C#CC6(O)CC6)ccc54)cc3n12 [Ff-19, (S)-4-amino-N-(6-((1-hydroxycyclopropyl)ethynyl)-2,3-dihydrobenzofuran-3-yl)-N,1-dimethylimidazo[1,5-a]quinoxaline-8-carboxamide] | 100 to 1000 | 129 | < 8.30 | 
12 | Cc1ncc2c(N)nc3ccc(C(=O)N(C)[C@@H]4COc5cc(C#CC6(C)COC6)ccc54)cc3n12 [Ff-20, (S)-4-amino-N,1-dimethyl-N-(6-((3-methyloxetan-3-yl)ethynyl)-2,3-dihydrobenzofuran-3-yl)imidazo[1,5-a]quinoxaline-8-carboxamide] | < 100 | 382 | 8.30 to 9.00 | 
13 | Cc1ncc2c(N)nc3ccc(C(=O)N(C)[C@@H]4COc5nc(C(F)(F)F)ccc54)cc3n12 [Ff-21, (S)-4-amino-N,1-dimethyl-N-(6-(trifluoromethyl)-2,3-dihydrofuro[2,3-b]pyridin-3-yl)imidazo[1,5-a]quinoxaline-8-carboxamide] | 100 to 1000 | 874 | 8.30 to 9.00 | 
14 | CN(C(=O)c1cc2c(cc1F)nc(N)c1cncn12)[C@@H]1COc2nc(C(F)(F)F)ccc21 [Ff-22, (S)-4-amino-7-fluoro-N-methyl-N-(6-(trifluoromethyl)-2,3-dihydrofuro[2,3-b]pyridin-3-yl)imidazo[1,5-a]quinoxaline-8-carboxamide] | < 100 | 587 | 8.30 to 9.00 | 
15 | Nc1nc2cc(F)c(C(=O)N(Cc3ccc(-c4cnn(C(F)(F)F)c4)cc3F)C34CC(C3)C4)cc2n2cncc12 [Ff-23, 4-amino-N-(bicyclo[1.1.1]pentan-1-yl)-7-fluoro-N-(2-fluoro-4-(1-(trifluoromethyl)-1H-pyrazol-4-yl)benzyl)imidazo[1,5-a]quinoxaline-8-carboxamide] | < 100 | 48 | 8.30 to 9.00 | 
16 | CN(Cc1ccc(-c2cnn(C(F)(F)F)c2)cc1F)C(=O)c1cc2c(cc1F)nc(N)c1cncn12 [Ff-24, 4-amino-7-fluoro-N-(2-fluoro-4-(1-(trifluoromethyl)-1H-pyrazol-4-yl)benzyl)-N-methylimidazo[1,5-a]quinoxaline-8-carboxamide] | 100 to 1000 | 1985 | 8.30 to 9.00 | 
17 | CCN(Cc1ccc(C(F)(F)F)cc1F)C(=O)c1ccc2nc(N)c3cncn3c2c1 [Ff-25, 4-amino-N-ethyl-N-[[2-fluoro-4-(trifluoromethyl)phenyl]methyl]imidazo[1,5-a]quinoxaline-8-carboxamide] | < 100 | 312 | 8.30 to 9.00 | 
18 | CCN(Cc1ccc(C(F)(F)F)cc1F)C(=O)c1cc2c(cc1F)nc(N)c1cncn12 [Ff-26, 4-amino-N-ethyl-7-fluoro-N-[[2-fluoro-4-(trifluoromethyl)phenyl]methyl]imidazo[1,5-a]quinoxaline-8-carboxamide] | < 100 | 210 | ≥ 9.00 | 
19 | Nc1nc2cc(F)c(C(=O)N(Cc3ccc(C(F)(F)F)cc3F)C(CO)CO)cc2n2cncc12 [Ff-27, 4-amino-7-fluoro-N-[[2-fluoro-4-(trifluoromethyl)phenyl]methyl]-N-[2-hydroxy-1-(hydroxymethyl)ethyl]imidazo[1,5-a]quinoxaline-8-carboxamide] | > 1000 | 51 | < 8.30 | 
20 | Nc1nc2cc(F)c(C(=O)N3CCC4CC3c3ccc(C(F)(F)F)cc34)cc2n2cncc12 (stereo not drawn) [Ff-29, (4-amino-7-fluoroimidazo[1,5-a]quinoxalin-8-yl)(7-(trifluoromethyl)-1,3,4,5-tetrahydro-2H-1,5-methanobenzo[c]azepin-2-yl)methanone] | 100 to 1000 | 308 | 8.30 to 9.00 | 
21 | CN(Cc1ccc(Cl)cc1C#N)C(=O)c1cc2c(cc1F)nc(N)c1cncn12 [Ff-32, 4-amino-N-(4-chloro-2-cyanobenzyl)-7-fluoro-N-methylimidazo[1,5-a]quinoxaline-8-carboxamide] | 100 to 1000 | 346 | 8.30 to 9.00 | 
22 | Cc1ncn2c(N)nc3cc(F)c(C(=O)N(Cc4ccc(C(F)(F)F)cn4)[C@H](C)c4ncccn4)cc3c12 [Ff-54, (R)-5-amino-8-fluoro-1-methyl-N-(1-(pyrimidin-2-yl)ethyl)-N-((5-(trifluoromethyl)pyridin-2-yl)methyl)imidazo[1,5-c]quinazoline-9-carboxamide] | < 100 | 95 | 8.30 to 9.00 | 
23 | CN(C(=O)c1cc2c(cc1F)nc(N)c1cncn12)[C@@H]1CC2(CC2)c2cc(C(F)(F)F)ccc21 [Ff-58, (R)-4-amino-7-fluoro-N-methyl-N-(6′-(trifluoromethyl)-2′,3′-dihydrospiro[cyclopropane-1,1′-inden]-3′-yl)imidazo[1,5-a]quinoxaline-8-carboxamide] | < 100 | 166 | 8.30 to 9.00 | 
24 | Cc1ncc2c(N)nc3cc(F)c(C(=O)N(C)[C@@H]4COc5cc(C(F)(F)F)ccc54)cc3n12 [Ff-59, (S)-4-amino-7-fluoro-N,1-dimethyl-N-(6-(trifluoromethyl)-2,3-dihydrobenzofuran-3-yl)imidazo[1,5-a]quinoxaline-8-carboxamide] | < 100 | 65 | 8.30 to 9.00 | 
25 | Cc1ncc2c(N)nc3ccc(C(=O)N4CCC5(CC4)CC(=O)c4ccccc4O5)cc3n12 [Ff-60, 1′-(4-amino-1-methylimidazo[1,5-a]quinoxaline-8-carbonyl)spiro[chromane-2,4′-piperidin]-4-one] | 100 to 1000 | 371 | < 8.30 | 
26 | Nc1nc2cc(F)c(C(=O)N3CC4CC(C3)c3ccccc34)cc2n2cncc12 [Ff-62, (4-amino-7-fluoroimidazo[1,5-a]quinoxalin-8-yl)(1,2,4,5-tetrahydro-3H-1,5-methanobenzo[d]azepin-3-yl)methanone] | > 1000 | 178 | < 8.30 | 
